From patent US8834870B2, “Treatment of leukemias and chronic myeloproliferative diseases with antibodies to EphA3” (Kalobios Pharmaceuticals, Inc., priority 2009, dated 2014)

How the values were obtained:
[1] = test system: peripheral blood cells from polycythemia vera (PV) patient; assay: Apoptosis induction (Annexin V flow cytometry), PV primary cells; assay type: cell-based, human; conditions: sample PB-2, PV; camptothecin 10 μM positive control; 24 hours
Procedure: (§1) An engineered human activating antibody that binds to EphA3 was evaluated for the ability to induce apoptosis in vitro in primary cells isolated from patients or individuals suffering from myeloproliferative disorders. Cells were seeded at 2.5×10^5 cells/well in 96-well “U”-bottom plates in 0.1 ml culture medium (RPMI 1640 with 10% fetal bovine serum). Anti-EphA3 antibody or human IgG1 isotype control antibody was added to final concentrations between 10 μg/ml and 1 ng/ml and the plates were incubated at 37° C. and 5% carbon dioxide in a tissue-culture incubator for 24 hours. As a positive control for apoptosis induction, separate cell samples were incubated with camptothecin (10 μM; Calbiochem). At the end of the incubation, cells were harvested and washed by centrifugation at 1000 rpm for 5 min followed by incubation in 0.1 ml of 1× Annexin V binding buffer (BD Pharmingen, Cat #556547, component no. 51-66121E) containing 5 μl FITC-conjugated Annexin V (BD Pharmingen, component no. 51-65874×) and 5 μl Propidium Iodide (component no. 51-66211E) for 15 minutes at room temperature in the dark. Four hundred μl of 1× binding buffer was added to each tube and annexin V-staining apoptotic cells were identified by flow cytometry. FIG. 4 provides data showing apoptosis activity of a human engineered antibody.

[2] = test system: peripheral blood cells from essential thrombocythemia (ET) patient; assay: Apoptosis induction (Annexin V flow cytometry), ET primary cells; assay type: cell-based, human; conditions: sample PB-1, ET; camptothecin 10 μM positive control; 24 hours
Procedure: as §1

[3] = test system: bone marrow cells from AML patients; assay: Apoptosis induction (Annexin V flow cytometry), AML primary cells; assay type: cell-based, human; conditions: camptothecin 10 μM positive control, 24 hours
Procedure: An engineered human activating antibody that binds to EphA3 was evaluated for the ability to induce apoptosis in vitro in primary cells isolated from patients or individuals suffering from myeloproliferative disorders. Cells were seeded at 2.5×10^5 cells/well in 96-well “U”-bottom plates in 0.1 ml culture medium (RPMI 1640 with 10% fetal bovine serum). Anti-EphA3 antibody or human IgG1 isotype control antibody was added to final concentrations between 10 μg/ml and 1 ng/ml and the plates were incubated at 37° C. and 5% carbon dioxide in a tissue-culture incubator for 24 hours. As a positive control for apoptosis induction, separate cell samples were incubated with camptothecin (10 μM; Calbiochem). […]
In these samples, in each case in which CD123^+CD34^+CD38^− leukemic stem cells (LSC) could be identified, 100% of these LSC were also positive for EphA3 expression. In the majority of samples, there is good correlation between the percent of cells killed either by ADCC or apoptosis mediated by an engineered human anti-EphA3 antibody and the proportion of cells detected as positive for EphA3 by flow cytometry, indicating specificity of the antibody for EphA3-expressing cells.

EphA3 antigen = EphA3 antigen (UniProt P29320); assay: ELISA on EphA3 antigen
Sequence of UniProt P29320 (P29320 21-541 limits assumed): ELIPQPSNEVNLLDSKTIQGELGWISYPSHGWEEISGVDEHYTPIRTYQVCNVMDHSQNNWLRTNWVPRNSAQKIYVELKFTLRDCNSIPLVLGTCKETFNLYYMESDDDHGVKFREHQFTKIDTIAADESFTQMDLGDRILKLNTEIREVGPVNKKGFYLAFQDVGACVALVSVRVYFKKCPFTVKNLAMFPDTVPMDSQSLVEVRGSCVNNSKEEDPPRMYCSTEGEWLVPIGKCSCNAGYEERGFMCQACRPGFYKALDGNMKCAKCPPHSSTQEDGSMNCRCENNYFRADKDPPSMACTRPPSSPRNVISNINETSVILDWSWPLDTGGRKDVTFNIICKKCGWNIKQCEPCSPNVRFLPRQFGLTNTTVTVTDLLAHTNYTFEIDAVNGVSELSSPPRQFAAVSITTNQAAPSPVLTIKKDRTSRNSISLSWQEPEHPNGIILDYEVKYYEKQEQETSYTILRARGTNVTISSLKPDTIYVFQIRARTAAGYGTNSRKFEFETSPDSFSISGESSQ

CC[C@@]1(O)C(=O)OCc2c1cc1n(c2=O)Cc2cc3ccccc3nc2-1 [Camptothecin, camptothecin]
Camptothecin-mediated apoptosis (% cell death) [1]: 73.2%
Camptothecin-mediated apoptosis (% cell death) [2]: 78%
Camptothecin-mediated apoptosis (% cell death) ([3]; sample BM, 06, AML): 59.8%
Camptothecin-mediated apoptosis (% cell death) ([3]; sample BM, 07, AML): 47.8%

monoclonal antibody IIIA4
AFFINITY (EphA3 antigen): 2.5 nM
